Results as given in EPA's ToxRefDB 2.

Tests used:
rat [1] = conditions: Subchronic oral toxicity in rodents, sprague dawley, Gavage/Intubation, dose end: 90 day, group: systemic
rat [2] = conditions: Multigenerational reproductive toxicity study, sprague dawley, Oral, Gavage/Intubation, dose end: 2 generation
rat [3] = conditions: Subchronic oral toxicity in rodents, sprague dawley, Gavage/Intubation, dose end: 90 day, group: systemic; remark: listed apart in the source
rat [4] = conditions: Prenatal developmental toxicity study, sprague dawley, Oral, Gavage/Intubation, dose end: 20 GD
rat [5] = conditions: Multigenerational reproductive toxicity study, sprague dawley, Oral, Gavage/Intubation, dose end: 1 generation
[6] = systemic / clinical chemistry / albumin / albumin + systemic / clinical chemistry / protein / protein + systemic / pathology microscopic / …
[7] = systemic / organ weight / spleen / absolute + systemic / organ weight / spleen / relative to body weight + systemic / organ weight / spleen…
[8] = group: offspring, systemic / organ weight / spleen / absolute
[9] = group: offspring, systemic / organ weight / spleen / absolute + systemic / pathology microscopic / kidney / edema + systemic / pathology microscopic / kidney…
[10] = group: parental, systemic / in life observation / body weight / body weight + systemic / in life observation / body weight / body weight gain + systemic / in…
[11] = systemic / clinical chemistry / peroxisomal beta-oxidation analysis / peroxisomal beta-oxidation analysis + systemic / organ weight / liver…
[12] = systemic / hematology / neutrophils / neutrophils
[13] = group: developmental, systemic / in life observation / body weight / fetal weight
[14] = group: maternal, systemic / in life observation / body weight / body weight + systemic / in life observation / body weight / body weight gain + systemic / in…
[15] = group: offspring, systemic / in life observation / body weight / offspring (pup) weight
[16] = group: parental, systemic / in life observation / body weight / body weight gain + systemic / in life observation / clinical signs / fur (altered appearance…

How did the LOAEL (rat [1]; [6]) turn out when `O=S(=O)([O-])C(F)(F)C(F)(F)C(F)(F)C(F)(F)F.[K+]` [PFBS-K] was run?
The LOAEL was greater than 600 mg/kg/day.

And the NOAEL (rat [1]; [6])?
The NOAEL was no less than 600 mg/kg/day.

And the LEL (rat [1]; [7])?
The LEL was 60 mg/kg/day.

And the NEL (rat [1]; [7])?
Its NEL is less than 60 mg/kg/day.

What about the LEL (rat [2]; [8]) of the same molecule?
Its LEL is 30 mg/kg/day.

And the NEL (rat [2]; [8])?
Its NEL is less than 30 mg/kg/day.

And the LOAEL (rat [2]; [9])?
Its LOAEL is greater than 1000 mg/kg/day.

And the NOAEL (rat [2]; [9])?
Its NOAEL is no less than 1000 mg/kg/day.

And the LOAEL (rat [2]; [10])?
The LOAEL was greater than 1000 mg/kg/day.

And the NEL (rat [2]; [10])?
Its NEL is 100 mg/kg/day.

And the NOAEL (rat [2]; [10])?
The NOAEL was no less than 1000 mg/kg/day.

And the LEL (rat [2]; group: parental, systemic / pathology microscopic / kidney / edema + systemic / pathology microscopic / kidney / hyperplasia + systemic / organ weight / …)?
The LEL was 300 mg/kg/day.

What does the source list for `O=C([O-])C(F)(F)C(F)(F)C(F)(F)C(F)(F)C(F)(F)F.[Na+]` [Sodium perfluorohexanoate]?
LOAEL (rat [3]; [11]): > 500 mg/kg/day; NOAEL (rat [3]; [11]): ≥ 500 mg/kg/day; LEL (rat [3]; [12]): 20 mg/kg/day; NEL (rat [3]; [12]): < 20 mg/kg/day; LEL (rat [4]; [13]): 500 mg/kg/day; LOAEL (rat [4]; [13]): > 500 mg/kg/day; NEL (rat [4]; [13]): 100 mg/kg/day; NOAEL (rat [4]; [13]): ≥ 500 mg/kg/day; LEL (rat [4]; [14]): 500 mg/kg/day; LOAEL (rat [4]; [14]): > 500 mg/kg/day; NEL (rat [4]; [14]): 100 mg/kg/day; NOAEL (rat [4]; [14]): ≥ 500 mg/kg/day; LEL (rat [5]; [15]): 500 mg/kg/day; LOAEL (rat [5]; [15]): > 500 mg/kg/day; NEL (rat [5]; [15]): 100 mg/kg/day; NOAEL (rat [5]; [15]): ≥ 500 mg/kg/day; LEL (rat [5]; group: parental, systemic / in life observation / body weight / body weight gain): 100 mg/kg/day; LOAEL (rat [5]; [16]): > 500 mg/kg/day; NEL (rat [5]; [16]): 20 mg/kg/day; NOAEL (rat [5]; [16]): ≥ 500 mg/kg/day
